Data taken from patent US10975042B2, “Method for purifying an amino acid-n-carboxy anhydride” (SHIN-ETSU CHEMICAL CO., LTD., priority 2018, dated 2021).

Key:
[1] = Solubility of NCA to good solvent and poor solvent, visual observation; type: physicochemical
Text: The method to determine that the solvent is a good solvent for NCA includes a method of adding a good solvent to NCA with stirring, followed by visual observation to confirm that the NCA has been dissolved without forming turbidity, but is not particularly limited if complete dissolution can be determined by the method.
The method to determine that the solvent is a poor solvent for NCA is not particularly limited if total insolubility can be confirmed, including a method of adding a poor solvent to NCA with stirring, followed by confirming that the NCA is not dissolved at all and turbidity is not observed by visual inspection.
On the other hand, in order to determine the solubility of NCA to n-hexane, which is a poor solvent, 0.2 g of the purified NCA shown by the structural formula (A) was tried to be dissolved in 2.0 g of n-hexane.
[…] On the other hand, as a method to determine the solubility to a poor solvent, 2.0 g of n-hexane was added to 0.2 g of each NCA after purification.

[2] = Long-term storage stability of NCA, purity by DSC; type: physicochemical; conditions: for Purity after purification / Purity after 1 month from purification / Purity after 2 months from purification / Purity after a half year from purification / Purity after 1 year from purification / Purity after 2 years from purification: DSC
Description: In Examples and Comparative Examples, the purity of each NCA was measured using differential scanning calorimeter (DSC) in accordance with 2.52 thermal analysis method of The Japanese Pharmacopoeia, 17th ed. (2.4.4. measurement of purity). The measurement was performed using Thermo plus EVO DSC8230 (manufactured by Rigalu Corporation) as a measurement apparatus with the sample amount of 1 mg at a temperature increasing rate of 1° C./minute. Incidentally, it is conceived that precise measurement cannot be guaranteed unless the purity is 98 mol % or more according to 2.52 thermal analysis method of The Japanese Pharmacopoeia, 17th ed. (2.4.4. measurement of purity).
Each purified NCA was evaluated for long-term storage stability. […] Regarding the conditions of −20±5° C., the results of purity measured by DSC at after a half year, after 1 year, and after 2 years are shown. Regarding the conditions of 0 to 5° C., the results of purity measured by DSC at after 1 month, 2 months, and a half year are shown. As a comparison, commercially available NCA shown by the general formula (A) (manufactured by Isochem), the purity of which is more than 98 mol % based on the DSC measurement, was evaluated and shown as Comparison 1. This NCA has a residual chlorine concentration of 0.030 mass % and belongs to a lot with extremely low residual chlorine concentration in commercially available NCAs.

[3] = initial value of storage test at 0 to 5° C.
[4] = initial value of storage test at −20±5° C.

Compound | solubility of NCA to ethyl acetate (good solvent), purified NCA ([1]; 0.2 g purified NCA in 1.0 g ethyl acetate) | solubility of NCA to n-hexane (poor solvent), purified NCA ([1]; 0.2 g purified NCA in 2.0 g n-hexane) | solubility of NCA to ethyl acetate (good solvent), NCA before purification ([1]; NCA before purification in ethyl acetate) | Purity after purification [2, 3] [mol %] | Purity after purification [2, 4] [mol %] | Purity after 1 month from purification ([2]; storage at 0 to 5° C.) [mol %] | Purity after 2 months from purification ([2]; storage at 0 to 5° C.) [mol %] | Purity after a half year from purification ([2]; storage at 0 to 5° C.) [mol %] | Purity after 1 year from purification ([2]; storage at −20±5° C.) [mol %] | Purity after 2 years from purification ([2]; storage at −20±5° C.) [mol %] | Purity after a half year from purification ([2]; storage at −20±5° C.) [mol %] | long term storage stability (lowering of purity) at 0 to 5° C. ([2]; 0 to 5° C., up to a half year) | long term storage stability (lowering of purity) at −20° C. ([2]; −20° C., up to 2 years)
CC(C)(C)OC(=O)CCC1CC(=O)OC1=O (stereo not drawn) [(A)] | undissolved impurity was not determined visually | dissolution was not determined visually | undissolved impurities were determined visually | 98.93 | 98.93 | 98.93 | 98.92 | 98.90 | 98.92 | 98.90 | 98.94 | – | –
CC(C)(C)OC(=O)CCC1CC(=O)OC1=O (stereo not drawn) [Comparison 1, reference compound] | – | – | – | 98.14 | 98.14 | <98 | <98 | <98 | 98.02 | <98 | 98.06 | lowered in 1 month | the purity was lowered in 2 years
